Consider 6 compounds from patent US20240174618A1, “SUBSTITUTED (2-HETEROARYLOXYPHENYL)SULFONATES, SALTS THEREOF AND THEIR USE AS HERBICIDAL AGENTS” (Bayer Aktiengesellschaft, priority 2021, published 2024).

Structures are written as SMILES.

What all share (assay type): in vivo
The test system of data set [1] is Veronica persica (VERPE). The data set can be described thus: E. Herbicidal post-emergence efficacy, VERPE. Summed up:
(§1)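 Greenhouse weeds were treated post-emergence at the one-leaf stage, 2-3 weeks after sowing in sandy loam, with WP or EC formulations sprayed as aqueous suspension/emulsion plus 0.5% additive at 600 l/ha, at 320 g/ha or less. Efficacy was rated visually after about 3 weeks versus untreated controls (100% = dead, 0% = like control).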

Data set [2] deals with Veronica persica (VERPE). The experiment in a line: B. Herbicidal post-emergence efficacy, VERPE. Summed up: (§2)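 Post-emergence foliar spray, at application rates of 1280 g/ha or less, on one-leaf-stage plants 2–3 weeks post-sowing, using aqueous WP or EC suspensions with 0.5% additive at 600 L/ha. Visual percent efficacy relative to untreated plants scored roughly 3 weeks later in the greenhouse.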

For data set [3], the system named is Setaria viridis (SETVI). The data set can be described thus: C. Herbicidal pre-emergence efficacy, SETVI. The settings on record: scored after about 3 weeks. Summed up: (§3)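 Pre-emergence test: formulated compounds sprayed as aqueous suspension or emulsion with 0.5% additive at 600 l/ha onto soil covering sown seeds, at rates corresponding to 320 g/ha or less. After about 3 weeks in greenhouse, efficacy scored visually as percent versus untreated controls (100% = plants dead).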

The subject of data set [4] is Echinochloa crus-galli (ECHCG). The data set can be described thus: C. Herbicidal pre-emergence efficacy, ECHCG. To be noted: scored after about 3 weeks. The gist of the method: as §3
The test system of data set [5] is Abutilon theophrasti (ABUTH). The experiment in a line: B. Herbicidal post-emergence efficacy, ABUTH. The settings on record: rated visually after about 3 weeks. Summed up:
as §2

Data set [6] relates to Echinochloa crus-galli (ECHCG). The data set can be described thus: A. Herbicidal pre-emergence efficacy, ECHCG. To be noted: scored visually after about 3 weeks vs untreated controls. Summed up: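 Pre-emergence soil-surface spray in sandy loam pots, WP/EC in water plus 0.5% additive, 600 L/ha. Visual % damage rating after about 3 weeks in greenhouse vs. untreated; 0% = control-like, 100% = dead plants. Rates up to 1280 g/ha.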

Data set [7] deals with Polygonum convolvulus (POLCO). The data set can be described thus: E. Herbicidal post-emergence efficacy, POLCO. The gist of the method: as §1
Data set [8] concerns Triticum aestivum (TRZAS). The experiment in a line: F. Post-emergence effect on useful plants, TRZAS. To be noted: useful plant. The gist of the method: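 Crop plants grown in sandy loam in the greenhouse were sprayed at the one-leaf stage, 2-3 weeks after sowing, with WP or EC formulations plus 0.5% additive at 600 l/ha water. Damage was scored visually after about 3 weeks against untreated controls (0% = like control, 100% = dead).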

Turning to `CCCCS(=O)(=O)Oc1ccccc1Oc1ncc(Cl)cn1` [Example I-6], the “Post-emergence efficacy against VERPE in %” value in data set [1] (application rate 80 g/ha) and in data set [1] (application rate 320 g/ha) was 90% in each case. Also, the “Post-emergence efficacy against VERPE” value in data set [2] (320 g/ha) and in data set [2] (1280 g/ha) was 90% each time. In addition, the “Pre-emergence efficacy against SETVI” value in data set [3] (80 g/ha) is reported as 90%; in data set [3] (320 g/ha), 100%. In addition, the “Pre-emergence efficacy against ECHCG” value in data set [4] (80 g/ha), in data set [4] (320 g/ha), in data set [6] (80 g/ha), in data set [6] (320 g/ha) and in data set [6] (1280 g/ha) was 100% each time. The “Post-emergence efficacy against ABUTH in %” value in data set [5] (320 g/ha) and in data set [5] (1280 g/ha) was 90% each time. For the same compound, the entries for the “Post-emergence efficacy against POLCO in %” value in data set [7] (application rate 80 g/ha) and in data set [7] (application rate 320 g/ha) were 90% and 100%, respectively.
On to `CC(C)CS(=O)(=O)Oc1ccccc1Oc1ncc(Cl)cn1` [Example I-7, [2-(5-Chloropyrimidin-2-yl)oxyphenyl] 2-methylpropane-1-sulfonate], for which the “Post-emergence efficacy against VERPE in %” value is given as 90% in data set [1] (application rate 80 g/ha) and 100% in data set [1] (application rate 320 g/ha). In addition, the “Pre-emergence efficacy against SETVI” value in data set [3] (80 g/ha) and in data set [3] (320 g/ha) was 100% in each case. Moreover, the “Pre-emergence efficacy against ECHCG” value in data set [4] (80 g/ha), in data set [4] (320 g/ha), in data set [6] (320 g/ha) and in data set [6] (1280 g/ha) was 100% each time. For the same compound, the “Post-emergence efficacy against ABUTH in %” value in data set [5] (320 g/ha) and in data set [5] (1280 g/ha) was 90% in each case. In addition, the “Post-emergence efficacy against POLCO in %” value in data set [7] (application rate 320 g/ha) is on record as 100%. The “Post-emergence efficacy against TRZAS in %” value in data set [8] (application rate 80 g/ha) was 20%.
For `Cc1cccc(OS(=O)(=O)CCCCl)c1Oc1ncc(Cl)cn1` [Example I-12], the “Post-emergence efficacy against VERPE in %” value in data set [1] (application rate 80 g/ha) and in data set [1] (application rate 320 g/ha) was 100% in each case. For the same compound, the “Post-emergence efficacy against VERPE” value in data set [2] (1280 g/ha) came out at 90%. The “Pre-emergence efficacy against ECHCG” value in data set [4] (80 g/ha) came to 90%; in data set [4] (320 g/ha), 90%; in data set [6] (320 g/ha) it was 90%; in data set [6] (1280 g/ha) it was 100%. Further, in data set [7] (application rate 320 g/ha), the “Post-emergence efficacy against POLCO in %” value came to 100%. Moreover, the “Post-emergence efficacy against TRZAS in %” value in data set [8] (application rate 80 g/ha) and in data set [8] (application rate 320 g/ha) was 0% throughout.
For `O=S(=O)(CCCCl)Oc1cccc(F)c1Oc1ncc(Cl)cn1` [Example I-13], in data set [1] (application rate 320 g/ha), the “Post-emergence efficacy against VERPE in %” value is 90%. The “Post-emergence efficacy against VERPE” value is given as 90% in data set [2] (80 g/ha), 100% in data set [2] (320 g/ha) and 100% in data set [2] (1280 g/ha). In addition, the “Pre-emergence efficacy against ECHCG” value in data set [4] (320 g/ha) is given as 80%; in data set [6] (1280 g/ha), 100%. For the same compound, the “Post-emergence efficacy against ABUTH in %” value in data set [5] (1280 g/ha) worked out at 90%. Also, the “Post-emergence efficacy against POLCO in %” value in data set [7] (application rate 320 g/ha) came to 80%. The “Post-emergence efficacy against TRZAS in %” value in data set [8] (application rate 80 g/ha) and in data set [8] (application rate 320 g/ha) was 10% throughout.
For `O=S(=O)(CCCCCl)Oc1ccccc1Oc1ncc(Cl)cn1` [Example I-15], the entries for the “Post-emergence efficacy against VERPE in %” value in data set [1] (application rate 80 g/ha) and in data set [1] (application rate 320 g/ha) were 90% and 100%, respectively. Moreover, the “Post-emergence efficacy against VERPE” value in data set [2] (80 g/ha), in data set [2] (320 g/ha) and in data set [2] (1280 g/ha) was 100% throughout. Besides, the “Pre-emergence efficacy against SETVI” value in data set [3] (80 g/ha) is reported as 80%; in data set [3] (320 g/ha), 100%. Also, the “Pre-emergence efficacy against ECHCG” value in data set [4] (320 g/ha) turned out to be 90%; in data set [6] (80 g/ha), 100%; in data set [6] (320 g/ha) it was 100%; in data set [6] (1280 g/ha), 100%. In addition, the “Post-emergence efficacy against ABUTH in %” value in data set [5] (80 g/ha), in data set [5] (320 g/ha) and in data set [5] (1280 g/ha) was 100% each time. For the same compound, the “Post-emergence efficacy against POLCO in %” value is 80% in data set [7] (application rate 80 g/ha) and 100% in data set [7] (application rate 320 g/ha).
Regarding `O=S(=O)(CCCC(F)(F)F)Oc1c(Cl)cccc1Oc1ncc(Br)cn1` [Example I-34], the “Post-emergence efficacy against VERPE in %” value in data set [1] (application rate 80 g/ha) and in data set [1] (application rate 320 g/ha) was 100% throughout. The “Post-emergence efficacy against VERPE” value in data set [2] (80 g/ha), in data set [2] (320 g/ha) and in data set [2] (1280 g/ha) was 100% each time. In addition, the results for the “Pre-emergence efficacy against SETVI” value in data set [3] (80 g/ha) and in data set [3] (320 g/ha) were 80% and 100%, respectively. Further, the “Pre-emergence efficacy against ECHCG” value in data set [4] (320 g/ha) is 90%. In addition, the “Post-emergence efficacy against ABUTH in %” value in data set [5] (80 g/ha) is on record as 90%; in data set [5] (320 g/ha), 100%; in data set [5] (1280 g/ha), 100%. Moreover, in data set [7] (application rate 320 g/ha), the “Post-emergence efficacy against POLCO in %” value is 100%. Besides, the “Post-emergence efficacy against TRZAS in %” value in data set [8] (application rate 80 g/ha) is recorded as 0%; in data set [8] (application rate 320 g/ha), 20%.
